{"source": "patent US20150140109A1", "about": "“DOCETAXEL-BASED PROLONGED-RELEASE CANCER TREATMENT DRUG” (OY FILANA LTD, priority 2012, published 2015)", "test_system": "acinic cell carcinoma of the glandula mammaria of the NZB mouse Ca 755", "assay": "Antitumor activity in mice inoculated with Ca755 mammary adenocarcinoma (tumor growth kinetics, lifetime)", "format": "in vivo, C57B1/6 female mice", "experimental": "To investigate the antitumor activity of a new dosage form of docetaxel in the composition with PLGA 50/50 the acinic cell carcinoma of the glandula mammaria of the NZB mouse Ca 755 was chosen. As the comparison object free docetaxel substance was used. The experiments were carried out on C57B1/6 female mice with the body weight of 18-20 g.\nThe anti-tumor activity of the preparations under research was estimated on the basis of the comparative analysis of tumor growth kinetics and comparing the lifetime in test groups and control groups of animals.\nThe introduction of both the docetaxel-based prolonged-release drug and the free docetaxel was started 48 hours after tumor inoculation.", "data": [{"smiles": "CC(=O)O[C@@]12CO[C@@H]1C[C@H](O)[C@@]1(C)C(=O)[C@H](O)C3=C(C)[C@@H](OC(=O)[C@H](O)[C@@H](NC(=O)OC(C)(C)C)c4ccccc4)C[C@@](O)([C@@H](OC(=O)c4ccccc4)[C@H]21)C3(C)C", "note": "[docetaxel substance, docetaxel]", "values": [{"measurement": "period for which tumor growth inhibition above 50% is retained", "setting": "even for the dose of 20 mg/kg", "value": "≤ 17", "unit": "days"}, {"measurement": "inhibiting effect upon the tumor growth", "setting": "introduction started 48 hours after tumor inoculation", "value": "strong inhibiting effect"}]}]}
